Data published in patent publication US10670605B2, “Cysteine reactive probes and uses thereof” (The Scripps Research Institute, priority 2015, dated 2020).

Tests used:
[1] = target: cysteines in MDA-MB-231 and Ramos cells (Homo sapiens, UniProt Q13630); experiment: Competitive isoTOP-ABPP in situ (fragment-treated cells); format: cell-based; conditions: 200 μM, insitu
[2] = target: cysteines in MDA-MB-231 and Ramos cells (Homo sapiens, UniProt P49189); experiment: as above; format: cell-based; conditions: 200 μM, insitu
Chain of cysteines in MDA-MB-231 and Ramos cells (Homo sapiens, UniProt P49189) (P49189 whole entry): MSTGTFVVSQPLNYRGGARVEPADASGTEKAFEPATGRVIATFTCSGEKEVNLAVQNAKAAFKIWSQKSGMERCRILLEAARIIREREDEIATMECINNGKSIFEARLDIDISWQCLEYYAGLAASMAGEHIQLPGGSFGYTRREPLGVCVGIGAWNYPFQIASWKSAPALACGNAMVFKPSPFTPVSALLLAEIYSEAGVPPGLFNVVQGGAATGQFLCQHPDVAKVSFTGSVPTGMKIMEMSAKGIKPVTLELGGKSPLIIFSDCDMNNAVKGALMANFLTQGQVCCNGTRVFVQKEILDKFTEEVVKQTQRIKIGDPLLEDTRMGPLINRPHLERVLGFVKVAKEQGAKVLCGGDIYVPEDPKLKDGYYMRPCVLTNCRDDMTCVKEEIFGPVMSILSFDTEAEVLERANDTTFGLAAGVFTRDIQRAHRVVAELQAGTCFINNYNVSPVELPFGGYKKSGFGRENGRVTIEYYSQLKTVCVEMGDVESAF

[3] = target: T1, cysteines in MDA-MB-231 and Ramos cells (Homo sapiens, UniProt Q9Y5Y2); experiment: as above; format: cell-based; conditions: 200 μM, insitu
T1 sequence (Q9Y5Y2 1-271): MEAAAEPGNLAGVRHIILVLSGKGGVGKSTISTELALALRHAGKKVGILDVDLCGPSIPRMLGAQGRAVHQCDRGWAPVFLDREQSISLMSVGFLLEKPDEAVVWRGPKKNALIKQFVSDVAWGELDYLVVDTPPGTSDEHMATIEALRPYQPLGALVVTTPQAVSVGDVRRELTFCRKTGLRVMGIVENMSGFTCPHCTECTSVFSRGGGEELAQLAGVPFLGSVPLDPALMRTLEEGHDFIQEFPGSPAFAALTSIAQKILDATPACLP

[4] = target: T2, cysteines in MDA-MB-231 and Ramos cells (Homo sapiens, UniProt P29590); experiment: as above; format: cell-based; conditions: 200 μM, insitu, 231
T2 sequence (P29590 1-882): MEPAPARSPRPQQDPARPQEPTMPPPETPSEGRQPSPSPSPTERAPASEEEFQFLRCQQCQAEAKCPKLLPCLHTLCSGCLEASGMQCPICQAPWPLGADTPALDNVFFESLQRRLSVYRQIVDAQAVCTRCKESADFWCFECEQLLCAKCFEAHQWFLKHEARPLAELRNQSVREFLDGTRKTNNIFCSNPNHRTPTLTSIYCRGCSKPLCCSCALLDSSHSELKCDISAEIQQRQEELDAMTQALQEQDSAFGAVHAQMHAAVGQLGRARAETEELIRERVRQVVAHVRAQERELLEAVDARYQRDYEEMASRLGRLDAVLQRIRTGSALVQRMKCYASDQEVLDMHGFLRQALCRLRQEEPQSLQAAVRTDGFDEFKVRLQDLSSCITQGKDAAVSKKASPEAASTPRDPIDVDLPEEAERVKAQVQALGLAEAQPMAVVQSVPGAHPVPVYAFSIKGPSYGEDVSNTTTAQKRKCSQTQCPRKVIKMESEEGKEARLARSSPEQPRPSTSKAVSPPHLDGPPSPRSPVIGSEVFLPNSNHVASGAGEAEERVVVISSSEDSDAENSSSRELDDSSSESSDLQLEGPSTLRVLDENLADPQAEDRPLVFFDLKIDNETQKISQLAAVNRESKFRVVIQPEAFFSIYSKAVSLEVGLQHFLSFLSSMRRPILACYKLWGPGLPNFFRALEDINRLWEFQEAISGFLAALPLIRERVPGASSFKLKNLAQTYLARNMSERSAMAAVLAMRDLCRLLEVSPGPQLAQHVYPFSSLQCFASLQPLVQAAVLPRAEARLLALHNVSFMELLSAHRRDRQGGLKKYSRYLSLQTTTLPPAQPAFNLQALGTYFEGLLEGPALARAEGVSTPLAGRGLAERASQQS

[5] = target: T3, cysteines in MDA-MB-231 and Ramos cells (Homo sapiens, UniProt P35754); experiment: as above; format: cell-based; conditions: 200 μM, insitu, ramos
T3 sequence (P35754 1-106): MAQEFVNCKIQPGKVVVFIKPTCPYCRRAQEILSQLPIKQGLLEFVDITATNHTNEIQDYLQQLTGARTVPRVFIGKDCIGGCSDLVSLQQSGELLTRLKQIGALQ

[6] = target: T4, cysteines in MDA-MB-231 and Ramos cells (Homo sapiens, UniProt Q9NQ88); experiment: as above; format: cell-based; conditions: 200 μM, insitu
T4 sequence (Q9NQ88 1-270): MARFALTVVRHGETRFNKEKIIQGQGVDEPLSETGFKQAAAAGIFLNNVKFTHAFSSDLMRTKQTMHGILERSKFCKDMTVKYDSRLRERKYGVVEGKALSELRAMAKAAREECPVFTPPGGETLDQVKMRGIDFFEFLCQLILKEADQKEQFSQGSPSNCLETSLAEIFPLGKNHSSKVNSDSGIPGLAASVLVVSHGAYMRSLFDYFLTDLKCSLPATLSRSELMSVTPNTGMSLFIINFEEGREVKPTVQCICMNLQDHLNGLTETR

[7] = target: cysteines in MDA-MB-231 and Ramos cells (Homo sapiens, UniProt Q9Y6G9); experiment: as above; format: cell-based; conditions: 200 μM, insitu
Chain of cysteines in MDA-MB-231 and Ramos cells (Homo sapiens, UniProt Q9Y6G9) (Q9Y6G9 whole entry): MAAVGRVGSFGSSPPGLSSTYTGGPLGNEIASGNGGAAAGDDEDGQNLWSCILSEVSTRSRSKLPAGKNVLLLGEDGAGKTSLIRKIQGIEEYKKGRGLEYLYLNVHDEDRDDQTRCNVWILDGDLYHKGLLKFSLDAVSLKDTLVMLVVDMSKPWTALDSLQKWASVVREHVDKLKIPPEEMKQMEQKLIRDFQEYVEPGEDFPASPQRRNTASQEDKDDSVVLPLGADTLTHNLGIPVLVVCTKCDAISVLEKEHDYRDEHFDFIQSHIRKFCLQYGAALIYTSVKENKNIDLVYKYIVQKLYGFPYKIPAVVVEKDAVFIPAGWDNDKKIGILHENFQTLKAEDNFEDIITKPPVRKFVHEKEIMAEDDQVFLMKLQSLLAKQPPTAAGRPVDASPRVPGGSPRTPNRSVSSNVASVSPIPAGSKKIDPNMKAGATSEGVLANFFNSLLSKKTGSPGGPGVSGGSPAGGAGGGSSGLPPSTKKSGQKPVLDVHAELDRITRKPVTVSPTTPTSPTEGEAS

[8] = target: cysteines in MDA-MB-231 and Ramos cells (Homo sapiens, UniProt O14980); experiment: as above; format: cell-based; conditions: 200 μM, insitu
Chain of cysteines in MDA-MB-231 and Ramos cells (Homo sapiens, UniProt O14980) (O14980 whole entry): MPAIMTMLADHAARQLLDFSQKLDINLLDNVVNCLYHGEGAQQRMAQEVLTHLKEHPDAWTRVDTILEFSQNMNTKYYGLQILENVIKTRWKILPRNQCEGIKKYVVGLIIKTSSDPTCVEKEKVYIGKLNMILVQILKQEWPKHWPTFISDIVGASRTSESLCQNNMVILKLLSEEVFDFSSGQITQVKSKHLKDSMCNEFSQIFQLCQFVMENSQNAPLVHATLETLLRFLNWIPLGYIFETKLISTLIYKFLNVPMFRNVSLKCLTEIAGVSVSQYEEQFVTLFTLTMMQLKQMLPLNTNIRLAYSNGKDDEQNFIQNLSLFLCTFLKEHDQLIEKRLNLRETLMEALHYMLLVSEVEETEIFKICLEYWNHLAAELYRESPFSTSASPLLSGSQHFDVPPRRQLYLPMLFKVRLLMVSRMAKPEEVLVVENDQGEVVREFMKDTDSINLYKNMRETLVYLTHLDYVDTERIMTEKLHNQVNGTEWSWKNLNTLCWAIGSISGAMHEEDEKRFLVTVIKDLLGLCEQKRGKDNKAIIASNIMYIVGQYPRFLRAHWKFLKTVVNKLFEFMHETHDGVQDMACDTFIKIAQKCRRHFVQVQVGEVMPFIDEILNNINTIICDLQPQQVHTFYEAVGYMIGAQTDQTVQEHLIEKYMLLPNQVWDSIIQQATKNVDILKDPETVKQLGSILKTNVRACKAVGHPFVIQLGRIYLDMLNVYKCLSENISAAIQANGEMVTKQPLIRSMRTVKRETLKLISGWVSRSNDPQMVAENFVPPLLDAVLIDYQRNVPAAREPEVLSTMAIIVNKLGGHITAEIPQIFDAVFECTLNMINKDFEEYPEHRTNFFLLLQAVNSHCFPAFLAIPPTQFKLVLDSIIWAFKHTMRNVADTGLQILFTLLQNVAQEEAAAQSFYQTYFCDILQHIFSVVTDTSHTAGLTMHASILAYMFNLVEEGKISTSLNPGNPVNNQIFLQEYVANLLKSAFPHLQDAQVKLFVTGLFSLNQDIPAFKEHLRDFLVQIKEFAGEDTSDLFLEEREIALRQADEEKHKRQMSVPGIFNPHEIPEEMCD

[9] = target: cysteines in MDA-MB-231 and Ramos cells (Homo sapiens, UniProt Q00765); experiment: as above; format: cell-based; conditions: 200 μM, insitu, 231
Chain of cysteines in MDA-MB-231 and Ramos cells (Homo sapiens, UniProt Q00765) (Q00765 whole entry): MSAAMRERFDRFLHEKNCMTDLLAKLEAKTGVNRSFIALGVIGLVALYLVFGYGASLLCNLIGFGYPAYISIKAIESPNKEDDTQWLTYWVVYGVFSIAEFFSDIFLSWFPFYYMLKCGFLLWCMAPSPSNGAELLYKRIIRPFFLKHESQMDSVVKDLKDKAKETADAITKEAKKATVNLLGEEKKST

[10] = target: cysteines in MDA-MB-231 and Ramos cells (Homo sapiens, UniProt Q9BRF8); experiment: as above; format: cell-based; conditions: 200 μM, insitu, 231
Chain of cysteines in MDA-MB-231 and Ramos cells (Homo sapiens, UniProt Q9BRF8) (Q9BRF8 whole entry): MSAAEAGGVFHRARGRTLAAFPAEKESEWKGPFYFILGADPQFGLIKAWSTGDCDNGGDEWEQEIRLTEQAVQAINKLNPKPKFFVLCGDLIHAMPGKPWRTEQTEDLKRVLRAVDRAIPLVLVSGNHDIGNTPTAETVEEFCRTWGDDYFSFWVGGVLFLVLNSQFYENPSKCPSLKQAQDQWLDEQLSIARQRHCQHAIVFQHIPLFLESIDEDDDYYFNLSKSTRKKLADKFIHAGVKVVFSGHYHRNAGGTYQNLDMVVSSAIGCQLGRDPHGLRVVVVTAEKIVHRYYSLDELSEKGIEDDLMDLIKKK

[11] = target: T5, cysteines in MDA-MB-231 and Ramos cells (Homo sapiens, UniProt Q07065); experiment: as above; format: cell-based; conditions: 200 μM, insitu, 231
T5 sequence (Q07065 1-602): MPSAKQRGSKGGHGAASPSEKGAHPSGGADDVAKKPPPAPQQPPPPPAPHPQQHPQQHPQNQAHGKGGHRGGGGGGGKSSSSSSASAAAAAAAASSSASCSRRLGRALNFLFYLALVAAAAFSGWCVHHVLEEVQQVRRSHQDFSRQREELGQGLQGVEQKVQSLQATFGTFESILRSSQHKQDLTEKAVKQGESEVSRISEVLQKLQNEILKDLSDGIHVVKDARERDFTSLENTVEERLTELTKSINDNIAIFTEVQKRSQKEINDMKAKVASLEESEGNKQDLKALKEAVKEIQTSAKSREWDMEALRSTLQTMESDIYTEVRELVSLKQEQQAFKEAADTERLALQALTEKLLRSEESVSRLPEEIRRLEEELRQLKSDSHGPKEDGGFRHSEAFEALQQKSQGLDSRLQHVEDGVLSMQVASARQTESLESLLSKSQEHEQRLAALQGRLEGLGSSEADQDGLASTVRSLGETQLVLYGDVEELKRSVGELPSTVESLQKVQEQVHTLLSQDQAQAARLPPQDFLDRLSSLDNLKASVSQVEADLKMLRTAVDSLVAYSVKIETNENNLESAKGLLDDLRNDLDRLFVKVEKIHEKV

O00541_C272 = O00541_C272 (Homo sapiens, UniProt O00541); experiment: Competitive isoTOP-ABPP, cell lysates; format: binding; conditions: 500 μm in-vitro ramos
Chain of O00541_C272 (O00541 whole entry, looked up): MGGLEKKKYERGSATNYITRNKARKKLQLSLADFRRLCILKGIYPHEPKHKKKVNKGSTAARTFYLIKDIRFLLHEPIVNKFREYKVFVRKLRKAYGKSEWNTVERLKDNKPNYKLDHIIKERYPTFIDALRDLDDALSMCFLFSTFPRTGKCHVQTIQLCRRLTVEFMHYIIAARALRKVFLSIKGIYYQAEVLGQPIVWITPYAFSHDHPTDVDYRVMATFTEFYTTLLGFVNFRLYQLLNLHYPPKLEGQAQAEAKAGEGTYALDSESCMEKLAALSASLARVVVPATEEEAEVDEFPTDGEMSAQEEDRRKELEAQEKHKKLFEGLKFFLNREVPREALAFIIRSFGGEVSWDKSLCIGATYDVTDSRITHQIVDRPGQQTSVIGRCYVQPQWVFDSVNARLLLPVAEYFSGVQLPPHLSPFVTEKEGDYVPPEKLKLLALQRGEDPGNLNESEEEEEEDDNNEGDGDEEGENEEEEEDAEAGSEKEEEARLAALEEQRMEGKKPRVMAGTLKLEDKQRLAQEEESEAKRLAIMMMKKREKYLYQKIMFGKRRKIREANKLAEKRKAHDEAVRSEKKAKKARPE

Chain of cysteines in MDA-MB-231 and Ramos cells (Homo sapiens, UniProt Q13630) (Q13630 whole entry, the tested form may be a part): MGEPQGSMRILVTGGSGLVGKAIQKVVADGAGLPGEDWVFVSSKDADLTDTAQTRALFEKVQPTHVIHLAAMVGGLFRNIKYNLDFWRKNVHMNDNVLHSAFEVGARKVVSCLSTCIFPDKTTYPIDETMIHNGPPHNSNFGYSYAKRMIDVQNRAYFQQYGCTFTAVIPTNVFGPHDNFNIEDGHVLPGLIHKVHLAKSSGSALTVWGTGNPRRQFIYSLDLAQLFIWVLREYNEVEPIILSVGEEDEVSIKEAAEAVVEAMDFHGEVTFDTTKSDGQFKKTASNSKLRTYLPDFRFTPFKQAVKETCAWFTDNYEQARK

Row | SMILES | isoTOP-ABPP ratio, cysteine Q13630_C116 [1]; 231 | isoTOP-ABPP ratio P49189_C288 [2]; 231 | isoTOP-ABPP ratio P29590_C389 [4] | isoTOP-ABPP ratio Q9NQ88_C114 [6]; 231 | isoTOP-ABPP ratio Q9NQ88_C161 [6]; 231 | isoTOP-ABPP ratio Q9NQ88_C161 ([6]; ramos) | isoTOP-ABPP ratio Q9Y6G9_C51 [7]; 231 | isoTOP-ABPP ratio O14980_C528 [8]; 231 | isoTOP-ABPP ratio O14980_C528 ([8]; ramos) | isoTOP-ABPP ratio Q00765_C18 [9] | isoTOP-ABPP ratio Q9BRF8_C54 [10] | isoTOP-ABPP ratio, cysteine Q07065_C100 [11] | other results
1 | O=C(CCl)N1CCN(S(=O)(=O)c2ccccc2F)CC1 [compound 10] | 20.0 | 20.0 | 7.9 | 2.1 | 4.6 | 2.1 | 4.9 | 1.3 | 0.7 | 4.2 | 3.8 | – | isoTOP-ABPP ratio, cysteine Q9Y5Y2_C72 [3]; 231: 1.3; isoTOP-ABPP ratio P35754_C23 [5]: 13.0
2 | O=C(CCl)N1CCC(Cc2ccccc2)CC1 [compound 9] | – | – | – | – | – | – | – | – | – | – | – | – | isoTOP-ABPP reactivity Q07065_C100 CKAP4 [11]: 15.4; isoTOP-ABPP reactivity Q13630_C116 TSTA3 [1]; 231: 1.9; isoTOP-ABPP reactivity P49189_C288 ALDH9A1 [2]; 231: 20.0; isoTOP-ABPP reactivity Q9Y5Y2_C72 NUBP2 [3]; 231: 4.0; isoTOP-ABPP reactivity Q9NQ88_C114 TIGAR [6]; 231: 1.9; isoTOP-ABPP reactivity Q9NQ88_C161 TIGAR [6]; 231: 2.6; isoTOP-ABPP reactivity Q9BRF8_C54 CPPED1 [10]: 2.4
3 | O=C(CCl)NC12CC3CC(CC(C3)C1)C2 [compound 21] | 0.8 | 1.0 | 20.0 | 0.9 | 1.0 | – | 0.6 | 0.8 | – | 0.7 | – | 2.2 | isoTOP-ABPP ratio (reactivity profile), O00541_C272 (O00541_C272): 5.5
4 | O=C(CCl)NCCc1c[nH]c2ccccc12 [compound 13] | – | – | 1.3 | 1.1 | 1.1 | 1.5 | – | 1.1 | 1.1 | 1.2 | 1.4 | 1.6 | isoTOP-ABPP ratio, cysteine Q13630_C116 ([1]; ramos): 1.2; isoTOP-ABPP ratio P49189_C288 ([2]; ramos): 12.0; isoTOP-ABPP ratio, cysteine Q9Y5Y2_C72 ([3]; ramos): 1.5; isoTOP-ABPP ratio Q9NQ88_C114 ([6]; ramos): 1.2; isoTOP-ABPP ratio Q9Y6G9_C51 ([7]; ramos): 1.5
